{
  "source": "paper PMC5520047",
  "about": "“Prioritizing multiple therapeutic targets in parallel using automated DNA-encoded library screening” (Nature Communications, 2017)",
  "key": {"[1]": {"molecular_target": "S. aureus methionine aminopeptidase, MetAP (Staphylococcus aureus, UniProt P0A078)", "sequence (P0A078 whole entry)": "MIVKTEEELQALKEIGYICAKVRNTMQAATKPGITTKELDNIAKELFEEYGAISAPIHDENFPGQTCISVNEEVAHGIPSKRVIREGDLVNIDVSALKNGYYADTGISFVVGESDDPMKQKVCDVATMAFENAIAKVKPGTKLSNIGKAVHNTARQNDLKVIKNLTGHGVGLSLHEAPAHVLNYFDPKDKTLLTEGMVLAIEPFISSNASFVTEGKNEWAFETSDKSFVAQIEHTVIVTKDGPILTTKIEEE", "assay": "MetAP biochemical assay (fluorescence intensity coupled)", "settings": "average of two replicates with s.d.", "excerpt": "(§1) 368 Both the S. aureus and A. baumannii UppS in vitro biochemical assay use a pyrophosphatase and Biomol\n(§2) 369 Green Phosphate detection reagent to assess catalytic activity. These assays were based on previously\n(§3) 370 described assays both within GSK and others11-13. Briefly, the enzyme will add up to 8 isopentyl\n(§4) 371 pyrophosphate (IPP) units onto a farnesyl pyrophosphate FPP molecule, resulting in the production of 8\n(§5) 372 moles of inorganic pyrophosphates per mole of substrate added. The pyrophosphate is then converted\n(§6) 373 to inorganic phosphate by a pyrophosphatase, and this phosphate is detected by Biomol Green. The\n(§7) 374 assay is conducted in buffer containing 100 mM Trizma pH7.5, 1 mM MgCl2, 6 mM CHAPS and 0.005% […]\n(§8) 378 10 μL. The detection reagent was incubated for 20 min and 610-620 nm light was monitored by a Perkin\n(§9) 379 Elmer Envision plate reader. […]\n(§10) 383 Standard deviation values were calculated using the n-1 method. […]\n(§11) 388 A fluorescence intensity coupled assay was used to measure the in vitro biochemical activity of S. aureus […]\n(§12) 391 enzyme then digests the liberated peptide GFGF-AFC releasing the AFC causing a fluorescence increase\n(§13) 392 monitored by an Envision plate reader. […]\n(§14) 395 90 minute incubation with quench/detection solution, plates were read on an envision plate reader with […]\n(§15) 406 A fluorescence intensity coupled assay was used to measure the in vitro biochemical activity of M. […]"}, "[2]": {"tested_on": "S. aureus WCUH29 wild type", "assay": "MIC broth microdilution", "type": "cell-based, Staphylococcus aureus", "settings": "for MIC: Staphylococcus aureus, WCUH29WILDTYPE"}, "[3]": {"tested_on": "Haemophilus influenzae H128 ΔacrB", "assay": "MIC broth microdilution", "type": "cell-based"}, "[4]": {"tested_on": "Acinetobacter baumannii BM4652 ΔadeABC ΔadeIJK (efflux mutant)", "assay": "MIC broth microdilution", "type": "cell-based"}, "[5]": {"tested_on": "Acinetobacter baumannii ATCC 19606-1 ΔLpxC", "assay": "MIC broth microdilution", "type": "cell-based", "settings": "ATCC19606"}, "[6]": {"tested_on": "A. baumannii BM4652 efflux mutant, pRK415 and pRK415-UppS", "assay": "microbe, parasite or virus in culture", "type": "cell-based, Acinetobacter baumannii"}, "[7]": {"tested_on": "Pseudomonas aeruginosa PA0322 Δ(mexAB-oprM) Δ(mexCD-oprJ) Δ(mexEF-oprN)", "assay": "MIC broth microdilution", "type": "cell-based"}, "[8]": {"tested_on": "Klebsiella pneumoniae 1161486a ΔtolC", "assay": "MIC broth microdilution", "type": "cell-based"}, "[9]": {"tested_on": "Escherichia coli 7623 ΔtolC", "assay": "MIC broth microdilution", "type": "cell-based"}, "[10]": {"molecular_target": "A. baumannii UppS (Acinetobacter baumannii, UniProt V5VCK8)", "sequence (V5VCK8 entry or part of it)": "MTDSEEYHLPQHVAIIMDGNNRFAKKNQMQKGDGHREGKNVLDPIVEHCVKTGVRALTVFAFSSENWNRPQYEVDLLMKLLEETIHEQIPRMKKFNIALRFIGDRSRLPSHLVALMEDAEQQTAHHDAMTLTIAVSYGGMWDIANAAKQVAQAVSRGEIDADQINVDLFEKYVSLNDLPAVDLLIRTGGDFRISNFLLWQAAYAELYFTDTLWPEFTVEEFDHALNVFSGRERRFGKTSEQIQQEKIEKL", "assay": "UppS biochemical assay (pyrophosphatase / Biomol Green)", "settings": "average of two replicates with s.d.", "excerpt": "as §1, §2, §3, §4, §5, §6, §7, §8, §9, §10, §11, §12, §13, §14, §15"}},
  "note": "“Also recorded” adds a separate entry of the source. Read-outs that look alike come from different tables or passages of the source.",
  "data": [
    {"smiles": "Cc1nnc(Cn2c(C(C)Cc3ccc4c(c3)OCO4)nc3cccc(Cl)c32)[nH]1", "note": "(stereo not shown) [Compound 3]", "values": [
      {"measurement": "IC50", "setting": "[1]", "value": "350 ± 10", "unit": "nM"},
      {"measurement": "antibacterial activity", "setting": "[2]; S. aureus", "value": "lacked S. aureus antibacterial activity; also recorded: lacks antibacterial activity"},
      {"measurement": "MIC", "setting": "[2]; S. aureus WCUH29 wild type, read-out: MIC", "value": "> 128", "unit": "µg/mL"}
    ]},
    {"smiles": "CNC(=O)[C@@H](NC(=O)c1cc(Cl)c(Cl)cc1C(=O)NCc1ccc(C(C)(C)C)cc1)C(C)(C)C", "note": "[Compound 5]", "values": [
      {"measurement": "MIC", "setting": "[3]", "value": 1, "unit": "µg/mL"},
      {"measurement": "MIC", "setting": "[4]; A. baumannii BM652 efflux strain", "value": "> 128", "unit": "µg/mL"},
      {"measurement": "MIC", "setting": "[4]; A. baumannii BM4652 ΔadeABC ΔadeIJK efflux mutant", "value": "> 128", "unit": "µg/mL"},
      {"measurement": "MIC", "setting": "[5]", "value": "< 0.125", "unit": "µg/mL"},
      {"measurement": "MIC", "setting": "[6]; A. baumannii BM4652 efflux mutant + pRK415-UppS, 30 μg/ml polymyxin B nonapeptide", "value": 2, "unit": "µg/mL"},
      {"measurement": "MIC", "setting": "[6]; A. baumannii BM4652 efflux mutant + pRK415, 30 μg/ml polymyxin B nonapeptide", "value": 0.25, "unit": "µg/mL"},
      {"measurement": "MIC", "setting": "[6]; Acinetobacter baumannii, A. baumannii BM4652 efflux mutant + pRK415-UppS, 30 μg/ml polymyxin B nonapeptide", "value": 2, "unit": "µg/mL"},
      {"measurement": "MIC", "setting": "[6]; Acinetobacter baumannii, A. baumannii BM4652 efflux mutant + pRK415, 30 μg/ml polymyxin B nonapeptide", "value": 0.25, "unit": "µg/mL"},
      {"measurement": "MIC", "setting": "[6]; Acinetobacter baumannii, A. baumannii BM4652 efflux mutant, N/A (no plasmid), 30 μg/ml polymyxin B nonapeptide", "value": 0.25, "unit": "µg/mL"},
      {"measurement": "MIC", "setting": "[6]; Acinetobacter baumannii, without the permeabilising agent", "value": "> 128", "unit": "µg/mL"},
      {"measurement": "Fold MIC increase", "setting": "[6]; pRK415-UppS overexpressing strain relative to parent strain, 30 μg/ml polymyxin B nonapeptide", "value": 8, "unit": "fold"},
      {"measurement": "MIC", "setting": "[7]", "value": "> 128", "unit": "µg/mL"},
      {"measurement": "MIC", "setting": "[8]", "value": "> 128", "unit": "µg/mL"},
      {"measurement": "MIC", "setting": "[9]", "value": "> 128", "unit": "µg/mL"},
      {"measurement": "MIC", "setting": "[2]", "value": "> 128", "unit": "µg/mL"},
      {"measurement": "IC50", "setting": "[10]", "value": "43 ± 25", "unit": "nM"}
    ]}
  ]
}
